In patent publication US11548900B2, “Oxazino-quinazoline and oxazino-quinoline type compound, preparation method and uses thereof” (BEIJING SCITECH-MQ PHARMACEUTICALS LIMITED, priority 2018, dated 2023):

Legend:
HER2 kinase = HER2 kinase (Homo sapiens (Human), UniProt P04626); test: Inhibition of HER2 kinase activity (ULight-labeled PolyGT substrate); assay type: biochemical; settings: HER2 kinase 10 nM, ATP 10 μM, 2 hours
Procedure: (§1) The assay for the inhibition of EGFR and HER2 kinase activity by small molecular compounds was carried out using the method as follows:
(§2) 1) Dilution of the compounds
(§3) In a 96-well plate a, the compounds were diluted with DMSO using a 3-fold gradient dilution to form 11 concentrations, the 12th concentration is pure DMSO (as a positive control); and in a new 96-well plate b the above solutions were diluted 25 times with ultrapure water (DMSO concentration is 4%).
(§4) 2) Transferring the compounds to 384-well plate
(§5) The compound solutions diluted with ultrapure water in the 96-well plate b above was transferred to the corresponding wells of a 384-well plate in duplicate.
(§6) 3) Addition of 4×kinase solution: 2.5 μl of the above 4× kinase solution was taken using multichannel pipette and added to the corresponding reaction wells of the 384-well plate, mixed well and pre-reacted at room temperature for 5 minutes.
(§7) 4) Addition of 2×substrate/ATP mixed solution: 5 μl of the above 2×substrate/ATP mixed solution was taken using multichannel pipette and added to the corresponding reaction wells of the 384-well plate.
(§8) 5) Negative control: negative control wells were set in the 384-well plate, and 2.5 μl 4×substrate, 2.5 μl 4×enzyme solution, 2.5 μl 1×Kinase Assay Buffer and 2.5 μl ultrapure water containing 4% DMSO were added to each well.
(§9) 6) Mixed by centrifugation and kept at room temperature for 2 hours in the dark.
(§10) 7) Termination of the enzymatic reaction:
(§11) 5 μl of the above 4× stop solution was pipetted to the corresponding wells of the 384-well plate, centrifuged and mixed, and reacted at room temperature for 5 minutes.
(§12) 5 μl of the above 4× detection solution was pipetted into the corresponding wells of the 384-well plate, centrifuged and mixed, and reacted at room temperature for 1 hour.
(§13) 9) The 384-well plate was placed into a microplate reader and the signal was detected using the corresponding program.
(§14) 10) IC50 analysis: Well reading value=10000*EU665 value/EU615 value Inhibition rate=(reading value of positive control well−reading value of experimental well)/(reading value of positive control well−reading value of negative control well)*100% Corresponding IC50s can be calculated by entering the drug concentrations and the corresponding inhibition rates into GraphPad Prism 5.
Conditions of experiment for screening HER2 kinase inhibitory molecules:
The final concentration of HER2 kinase in the reaction system is 10 nM, the final concentration of ATP is 10 μM, the final concentration of substrate ULight™-labeled PolyGT is 100 nM, and the enzymatic reaction time is 2 hours.
(§15) The maximum final concentration of the compound in the reaction system is 2.5 μM, 11 concentrations were made with a 3-fold gradient dilution, and the minimal final concentration is 0.042 nM. The final concentration of DMSO is 1%.

EGFR kinase = EGFR kinase (Homo sapiens (Human), UniProt P00533); test: Inhibition of EGFR kinase activity (ULight-labeled JAK-1 (Tyr1023) peptide substrate); assay type: biochemical; settings: EGFR kinase 0.35 nM, ATP 150 μM, 2 hours
Procedure: as §1, §2, §3, §4, §5, §6, §7, §8, §9, §10, §11, §12, §13, §14
Conditions of experiment for screening EGFR kinase inhibitory molecules:
The final concentration of EGFR kinase in the reaction system is 0.35 nM, and the final concentration of ATP is 150 μM, the final concentration of substrate ULight™-labeled JAK-1 (Tyr1023) Peptide is 100 nM, and the enzymatic reaction time is 2 hours.
as §15

BT474 cells = test: Inhibition of cell proliferation, BT474 (CCK-8, 72 h); assay type: cell-based; settings: Homo sapiens, BT-474, 72 h incubation
Procedure: The assay for the inhibition of cell proliferation by small molecular compounds was carried out using the method as follows:
1. 600 μL pancreatin was added to a T75 cell culture flask, which was digested in a 37° C. incubator for about 1 min before 5 mL of DMEM complete culture solution was added, blew evenly, transferred to a 15 mL centrifuge tube, and centrifuged at 1000 rpm for 4 min;
2. The supernatant was removed and 5 mL DMEM complete culture solution was added, blew evenly, and 10 μL cell suspension was taken and mixed with 10 μL 0.4% Trypan Blue, and counted using a cell counter;
3. BT474 and HCC827 cell lines were seeded in 96-well plates at a cell density of 10,000 and 3000 cells/well/80 μL, respectively, and cultured overnight. Only sterile water was added to the 36 wells on the periphery of the 96-well plate without adding cells, and only the 60 wells in the center of the 96-well plate were used for cell assays and controls;
4. Dilution of compounds: the compounds were diluted with a 3-fold dilution to make 10 concentrations in total with an initial concentration of 10 mM;
5. 20 μL of different compounds with different concentrations were added to each well, and 20 μL of complete culture solution was added to the remaining wells. The final concentration of DMSO in each well is 0.25%;
6. After 72 h of incubation, 10 μL CCK-8 reagent was added to each well, and incubated at 37° C. for 1-2 h; and the OD value was read at 450 nm;
7. Cell survival rate (%)=[(As−Ab)/(Ac−Ab)]*100%
As: Assay well (medium containing cell, CCK-8, compound)
Ac: Control well (medium containing cell, CCK-8)
Ab: Blank well (CCK-8, medium without cell and compound)
8. The value was imported into Graphpad Prism5 software for the calculation of IC50s (compound concentration at which 50% maximum survival rate is observed).

Chain of HER2 kinase (P04626 23-1255): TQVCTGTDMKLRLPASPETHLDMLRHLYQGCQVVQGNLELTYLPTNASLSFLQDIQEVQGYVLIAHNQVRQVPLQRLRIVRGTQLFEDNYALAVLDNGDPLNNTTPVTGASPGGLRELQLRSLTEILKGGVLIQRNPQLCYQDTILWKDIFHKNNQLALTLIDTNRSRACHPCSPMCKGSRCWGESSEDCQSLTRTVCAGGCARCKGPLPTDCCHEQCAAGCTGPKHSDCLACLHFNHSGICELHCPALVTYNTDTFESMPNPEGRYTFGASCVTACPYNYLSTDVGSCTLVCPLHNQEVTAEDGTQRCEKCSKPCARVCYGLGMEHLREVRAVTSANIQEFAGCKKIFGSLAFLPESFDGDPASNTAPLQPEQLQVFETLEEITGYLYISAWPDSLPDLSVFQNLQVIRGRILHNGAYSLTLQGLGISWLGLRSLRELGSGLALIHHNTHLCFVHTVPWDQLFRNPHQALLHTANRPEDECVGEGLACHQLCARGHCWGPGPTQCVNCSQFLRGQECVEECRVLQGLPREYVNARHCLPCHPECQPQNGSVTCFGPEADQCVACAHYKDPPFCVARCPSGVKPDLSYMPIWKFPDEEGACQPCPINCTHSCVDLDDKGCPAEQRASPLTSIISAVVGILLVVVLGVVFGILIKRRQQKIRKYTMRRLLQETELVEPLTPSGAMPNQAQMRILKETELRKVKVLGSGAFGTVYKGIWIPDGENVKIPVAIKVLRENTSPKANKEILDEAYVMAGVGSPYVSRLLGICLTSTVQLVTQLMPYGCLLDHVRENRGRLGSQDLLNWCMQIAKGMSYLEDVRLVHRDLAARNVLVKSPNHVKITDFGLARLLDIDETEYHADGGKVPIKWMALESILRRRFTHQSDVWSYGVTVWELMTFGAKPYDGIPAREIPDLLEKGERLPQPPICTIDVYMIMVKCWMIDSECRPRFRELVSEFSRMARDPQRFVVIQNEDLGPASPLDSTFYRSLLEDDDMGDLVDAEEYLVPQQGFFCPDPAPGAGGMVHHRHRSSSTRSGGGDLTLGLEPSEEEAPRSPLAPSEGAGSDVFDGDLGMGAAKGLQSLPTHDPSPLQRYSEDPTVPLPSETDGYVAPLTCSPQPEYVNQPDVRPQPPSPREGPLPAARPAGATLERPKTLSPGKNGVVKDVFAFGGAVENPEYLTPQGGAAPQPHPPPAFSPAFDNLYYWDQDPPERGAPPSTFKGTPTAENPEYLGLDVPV
Chain of EGFR kinase (P00533 25-1210): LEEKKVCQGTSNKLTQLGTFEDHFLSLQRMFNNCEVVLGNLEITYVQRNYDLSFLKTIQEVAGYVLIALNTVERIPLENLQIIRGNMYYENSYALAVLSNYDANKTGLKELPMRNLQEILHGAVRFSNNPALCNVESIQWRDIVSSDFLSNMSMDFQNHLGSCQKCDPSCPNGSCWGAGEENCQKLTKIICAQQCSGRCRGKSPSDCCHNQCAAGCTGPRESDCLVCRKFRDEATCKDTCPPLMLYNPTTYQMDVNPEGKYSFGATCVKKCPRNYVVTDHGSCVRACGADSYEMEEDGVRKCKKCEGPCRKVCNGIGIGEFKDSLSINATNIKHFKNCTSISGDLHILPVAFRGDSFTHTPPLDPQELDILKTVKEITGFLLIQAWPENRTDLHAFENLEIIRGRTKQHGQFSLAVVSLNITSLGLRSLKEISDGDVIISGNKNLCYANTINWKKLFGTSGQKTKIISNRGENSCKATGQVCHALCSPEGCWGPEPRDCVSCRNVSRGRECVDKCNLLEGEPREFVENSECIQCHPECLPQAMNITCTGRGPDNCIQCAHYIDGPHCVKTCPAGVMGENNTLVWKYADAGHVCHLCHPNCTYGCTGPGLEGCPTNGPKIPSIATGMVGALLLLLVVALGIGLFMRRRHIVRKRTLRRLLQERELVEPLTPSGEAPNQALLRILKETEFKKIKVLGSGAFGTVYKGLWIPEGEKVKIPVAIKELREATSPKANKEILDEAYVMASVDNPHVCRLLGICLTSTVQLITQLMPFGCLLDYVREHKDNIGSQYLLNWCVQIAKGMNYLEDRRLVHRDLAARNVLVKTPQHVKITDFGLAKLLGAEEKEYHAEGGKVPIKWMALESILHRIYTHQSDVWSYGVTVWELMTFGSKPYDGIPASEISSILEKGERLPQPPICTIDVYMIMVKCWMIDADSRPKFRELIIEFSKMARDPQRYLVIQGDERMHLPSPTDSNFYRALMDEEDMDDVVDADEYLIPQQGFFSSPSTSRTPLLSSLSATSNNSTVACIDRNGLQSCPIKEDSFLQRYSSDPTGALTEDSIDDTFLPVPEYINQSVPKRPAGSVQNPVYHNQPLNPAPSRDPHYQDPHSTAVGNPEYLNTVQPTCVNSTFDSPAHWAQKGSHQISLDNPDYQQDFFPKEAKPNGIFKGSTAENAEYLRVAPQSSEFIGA

Row | SMILES | IC50 (HER2 kinase) | IC50 (EGFR kinase) | IC50 (BT474 cells)
1 | C=CC(=O)N1CCOc2c1ccc1ncnc(Oc3ccc(OCc4ccccc4F)cc3)c21 [Example 40, 1-(10-(4-((2-fluorobenzyl)oxy)phenoxy)-2,3-dihydro-4H-[1,4]oxazino[2,3-f]quinazolin-4-yl)prop-2-en-1-one] | ≤ 0.05 µM | ≤ 0.05 µM | –
2 | C=CC(=O)N1CCOc2c1ccc1ncnc(Oc3ccc(OCc4cccc(F)c4)cc3)c21 [Example 41, 1-(10-(4-((3-fluorobenzyl)oxy)phenoxy)-2,3-dihydro-4H-[1,4]oxazino[2,3-f]quinazolin-4-yl)prop-2-en-1-one] | ≤ 0.05 µM | ≤ 0.05 µM | –
3 | C=CC(=O)N1CCOc2c1ccc1ncnc(Oc3ccc(OCc4ccc(F)cc4)cc3)c21 [Example 42, 1-(10-(4-((4-fluorobenzyl)oxy)phenoxy)-2,3-dihydro-4H-[1,4]oxazino[2,3-f]quinazolin-4-yl)prop-2-en-1-one] | ≤ 0.05 µM | ≤ 0.05 µM | –
4 | CN(C)C/C=C/C(=O)N1CCOc2c1ccc1ncnc(Nc3ccc(Oc4cccc(C(F)(F)F)c4)cc3)c21 [Example 43, (E)-4-(dimethylamino)-1-(10-((4-(3-(trifluoromethyl)phenoxy)phenyl)amino)-2,3-dihydro-4H-[1,4]oxazino[2,3-f]quinazolin-4-yl)but-2-en-1-one] | ≤ 0.05 µM | ≤ 0.05 µM | –
5 | CN(C)C/C=C/C(=O)N1CCOc2c1ccc1ncnc(Nc3ccc(OCc4cccc(F)c4)c(Cl)c3)c21 [Example 45, (E)-1-(10-((3-chloro-4-((3-fluorobenzyl)oxy)phenyl)amino)-2,3-dihydro-4H-[1,4]oxazino[2,3-f]quinazolin-4-yl)-4-(dimethylamino)but-2-en-1-one] | ≤ 0.05 µM | ≤ 0.05 µM | –
6 | CN(C)C/C=C/C(=O)N1CCOc2c1ccc1ncnc(Nc3ccc(Oc4ccc(Cl)cc4)cc3)c21 [Example 52, (E)-4-(dimethylamino)-1-(10-((4-(4-chlorophenoxy)phenyl)amino)-2,3-dihydro-4H-[1,4]oxazino[2,3-f]quinazolin-4-yl)but-2-en-1-one] | ≤ 0.05 µM | ≤ 0.05 µM | –
7 | CN(C)C/C=C/C(=O)N1CCOc2c1ccc1ncnc(Nc3ccc(OCc4cccc(F)c4)c(C(F)(F)F)c3)c21 [Example 67] | ≤ 0.05 µM | ≤ 0.05 µM | –
8 | CN(C)C/C=C/C(=O)N1CCOc2c1ccc1ncnc(Nc3ccc(Sc4ccc(F)cc4)cc3)c21 [Example 70, (E)-4-(dimethylamino)-1-(10-((4-((4-fluorophenyl)thio)phenyl)amino)-2,3-dihydro-4H-[1,4]oxazino[2,3-f]quinazolin-4-yl)but-2-en-1-one] | ≤ 0.05 µM | ≤ 0.05 µM | ≤ 0.05 µM
9 | CC(Oc1ccc(Nc2ncnc3ccc4c(c23)OCCN4C(=O)/C=C/CN(C)C)cc1)c1ccccn1 (centres unmarked) [Example 75, (E)-4-(dimethylamino)-1-(10-((4-(1-(pyridin-2-yl)ethoxy)phenyl)amino)-2,3-dihydro-4H-[1,4]oxazino[2,3-f]quinazolin-4-yl)but-2-en-1-one] | ≤ 0.05 µM | 0.05 to 0.5 µM | –
10 | CN(C)C/C=C/C(=O)N1CCOc2c1ccc1ncnc(Nc3ccc(OCc4ccncc4)cc3)c21 [Example 77, (E)-4-(dimethylamino)-1-(10-((4-(pyridin-4-ylmethoxy)phenyl)amino)-2,3-dihydro-4H-[1,4]oxazino[2,3-f]quinazolin-4-yl)but-2-en-1-one] | ≤ 0.05 µM | 0.5 to 5 µM | –
11 | COCCCCNC/C=C/C(=O)N1CCOc2c1ccc1ncnc(Nc3ccc(Oc4ccccc4F)cc3)c21 [Example 99, (E)-1-(10-((4-(2-fluorophenoxy)phenyl)amino)-2,3-dihydro-4H-[1,4]oxazino[2,3-f]quinazolin-4-yl)-4-((4-methoxybutyl)amino)but-2-en-1-one] | ≤ 0.05 µM | 0.05 to 0.5 µM | –
12 | Cc1cc(Nc2ncnc3ccc4c(c23)OCCN4C(=O)/C=C/CN(C)C)ccc1Oc1ccn2ncnc2c1 [Example 124, (E)-1-(10-((4-([1,2,4]triazolo[1,5-a]pyridin-7-yloxy)-3-methylphenyl)amino)-2,3-dihydro-4H-[1,4]oxazino[2,3-f]quinazolin-4-yl)-4-(dimethylamino)but-2-en-1-one] | ≤ 0.05 µM | 0.05 to 0.5 µM | ≤ 0.05 µM
13 | CN(C)C/C=C/C(=O)N1CCOc2c1ccc1ncnc(Nc3ccc(Oc4ccn5ncnc5c4)c(Cl)c3)c21 [Example 125, (E)-1-(10-((4-([1,2,4]triazolo[1,5-a]pyridin-7-yloxy)-3-chlorophenyl)amino)-2,3-dihydro-4H-[1,4]oxazino[2,3-f]quinazolin-4-yl)-4-(dimethylamino)but-2-en-1-one] | ≤ 0.05 µM | 0.05 to 0.5 µM | ≤ 0.05 µM
14 | CN1CCN(C/C=C/C(=O)N2CCOc3c2ccc2ncnc(Nc4ccc(Oc5ccn6ncnc6c5)c(Cl)c4)c32)CC1 [Example 126, (E)-1-(10-((4-([1,2,4]triazolo[1,5-a]pyridin-7-yloxy)-3-chlorophenyl)amino)-2,3-dihydro-4H-[1,4]oxazino[2,3-f]quinazolin-4-yl)-4-(4-methylpiperazin-1-yl)but-2-en-1-one] | ≤ 0.05 µM | ≤ 0.05 µM | ≤ 0.05 µM
15 | CC(C)N(C)C/C=C/C(=O)N1CCOc2c1ccc1ncnc(Nc3ccc(Oc4ccn5ncnc5c4)c(Cl)c3)c21 [Example 127, (E)-1-(10-((4-([1,2,4]triazolo[1,5-a]pyridin-7-yloxy)-3-chlorophenyl)amino)-2,3-dihydro-4H-[1,4]oxazino[2,3-f]quinazolin-4-yl)-4-(isopropyl(methyl)amino)but-2-en-1-one] | ≤ 0.05 µM | 0.05 to 0.5 µM | ≤ 0.05 µM
16 | O=C(/C=C/CN1CCCCC1)N1CCOc2c1ccc1ncnc(Nc3ccc(Oc4ccn5ncnc5c4)c(Cl)c3)c21 [Example 128, (E)-1-(10-((4-([1,2,4]triazolo[1,5-a]pyridin-7-yloxy)-3-chlorophenyl)amino)-2,3-dihydro-4H-[1,4]oxazino[2,3-f]quinazolin-4-yl)-4-(piperidin-1-yl)but-2-en-1-one] | ≤ 0.05 µM | 0.05 to 0.5 µM | ≤ 0.05 µM
17 | CN(C/C=C/C(=O)N1CCOc2c1ccc1ncnc(Nc3ccc(Oc4ccn5ncnc5c4)c(Cl)c3)c21)C1CCC1 [Example 129, (E)-1-(10-((4-([1,2,4]triazolo[1,5-a]pyridin-7-yloxy)-3-chlorophenyl)amino)-2,3-dihydro-4H-[1,4]oxazino[2,3-f]quinazolin-4-yl)-4-(cyclobutyl(methyl)amino)but-2-en-1-one] | ≤ 0.05 µM | 0.05 to 0.5 µM | ≤ 0.05 µM
18 | COCCN(C)C/C=C/C(=O)N1CCOc2c1ccc1ncnc(Nc3ccc(Oc4ccn5ncnc5c4)c(Cl)c3)c21 [Example 130, (E)-1-(10-((4-([1,2,4]triazolo[1,5-a]pyridin-7-yloxy)-3-chlorophenyl)amino)-2,3-dihydro-4H-[1,4]oxazino[2,3-f]quinazolin-4-yl)-4-((2-methoxyethyl)(methyl)amino)but-2-en-1-one] | ≤ 0.05 µM | 0.05 to 0.5 µM | ≤ 0.05 µM
